Reference: article PMC7377239, “Cardiovascular Effects of Polychlorinated Biphenyls and Their Major Metabolites” (Environmental Health Perspectives, 2020)
Where a name gives a salt, the structure may show the parent alone. Read-outs that look alike come from different tables or passages of the source.

Tests used:
HUVECs = test: High-content imaging cytotoxicity in HUVECs, 24 h; type: cell-based, human; details: Homo sapiens, HUVEC, 24 h, HUVECs; for viability at 0.01 µM / activity at 0.01 µM / viability at 0.1 µM / activity at 0.1 µM / viability at 1 µM / activity at 1 µM / viability at 10 µM / activity at 10 µM / viability at 100 µM / activity at 100 µM: 0.00 µM = 100.00; for viability at 0.1 µM / activity at 0.1 µM: 0.10 µM; for minimal effective concentration: top concentration 100.00 µM
Method in brief: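 HUVECs (passages 1–5) were plated at 750 cells/well without fibronectin, grown to a monolayer (3–5 d) and exposed to compounds for 24 h at 37°C, 5% CO2. Hoechst 33342, MitoTracker Orange and calcein AM staining was imaged at 10×; readouts were normalized to 0.5% DMSO vehicle and fit to a four-parameter logistic model.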

[1] = tested on: iCell endothelial cells (human iPSC-derived ECs); test: High-content imaging cytotoxicity in iCell endothelial cells, 24 h; type: cell-based; details: Homo sapiens, Endothelial cell, iPSC-EC, 24 hr; for viability at 0.1 µM / activity at 0.1 µM: 0.10 µM; for minimal effective concentration: top concentration 100.00 µM
Method in brief: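 Human iPSC-derived endothelial cells (passages 1–5) were grown to a fibronectin-coated monolayer, then exposed 24 h at 37 °C with 0.5% DMSO vehicle. Staining was Hoechst 33342, MitoTracker Orange and calcein AM, read by high-content imaging. Point of departure came from 4-parameter logistic fits, with a 1-SD vehicle cutoff and 100 µM as the top concentration.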

[2] = 24 hr, read-out: huvec.cyto.24hr
[3] = 24 hr, read-out: huvec.mito.24hr
[4] = 24 hr, read-out: huvec.mitoint.24hr
[5] = 24 hr, read-out: huvec.nma.24hr
[6] = 24 hrs, read-out: huvec.tc.24hrs
[7] = 0.00 µM control = 100.00, read-out: endo.cyto.24hr
[8] = 0.00 µM control = 100.00, read-out: endo.mito.24hr
[9] = 0.00 µM control = 100.00, read-out: endo.mitoint.24hr
[10] = 0.00 µM control = 100.00, read-out: endo.nma.24hr
[11] = 0.00 µM control = 100.00, read-out: endo.tc.24hrs

SMILES: O=S(=O)(O)Oc1cc(Cl)c(-c2cc(Cl)ccc2Cl)cc1Cl [4-yl PCB 52 sulfate]
- viability at 0.01 µM (HUVECs; [2]): 99.3%
- activity at 0.01 µM (HUVECs; [3]): 98.2%
- activity at 0.01 µM (HUVECs; [4]): 110%
- activity at 0.01 µM (HUVECs; [5]): 98.4%
- viability at 0.1 µM (HUVECs; [2]): 105%
- activity at 0.1 µM (HUVECs; [3]): 105%
- activity at 0.1 µM (HUVECs; [4]): 113%
- activity at 0.1 µM (HUVECs; [5]): 96.2%
- viability at 1 µM (HUVECs; [2]): 93.5%
- activity at 1 µM (HUVECs; [3]): 92.9%
- activity at 1 µM (HUVECs; [4]): 107%
- activity at 1 µM (HUVECs; [5]): 99.1%
- viability at 10 µM (HUVECs; [2]): 91.2%
- activity at 10 µM (HUVECs; [3]): 89.3%
- activity at 10 µM (HUVECs; [4]): 111%
- activity at 10 µM (HUVECs; [5]): 98.4%
- viability at 100 µM (HUVECs; [2]): 59.6%
- activity at 100 µM (HUVECs; [3]): 61.8%
- activity at 100 µM (HUVECs; [4]): 74.7%
- activity at 100 µM (HUVECs; [5]): 206%
- minimal effective concentration (HUVECs; 24 hr, read-out: huvec.cyto.24hr POD): 5.38 µM
- minimal effective concentration (HUVECs; 24 hr, read-out: huvec.mito.24hr POD): 3.31 µM
- minimal effective concentration (HUVECs; 24 hr, read-out: huvec.mitoint.24hr POD): 61.2 µM
- minimal effective concentration (HUVECs; 24 hr, read-out: huvec.nma.24hr POD): 33.9 µM
- viability at 0.01 µM (HUVECs; [6]): 99.3%
- viability at 0.1 µM (HUVECs; [6]): 105%
- viability at 1 µM (HUVECs; [6]): 93.5%
- viability at 10 µM (HUVECs; [6]): 91.2%
- viability at 100 µM (HUVECs; [6]): 61.8%
- minimal effective concentration (HUVECs; 24 hrs, read-out: huvec.tc.24hrs POD): 5.38 µM
- viability at 0.01 µM [1, 7]: 99.1%
- activity at 0.01 µM [1, 8]: 98.6%
- activity at 0.01 µM [1, 9]: 93.7%
- activity at 0.01 µM [1, 10]: 105%
- viability at 0.01 µM [1, 11]: 99.1%
- viability at 0.1 µM [1, 7]: 92.5%
- activity at 0.1 µM [1, 8]: 92.7%
- activity at 0.1 µM [1, 9]: 90.1%
- activity at 0.1 µM [1, 10]: 105%
- viability at 0.1 µM [1, 11]: 92.5%
- viability at 1 µM [1, 7]: 95.5%
- activity at 1 µM [1, 8]: 96.1%
- activity at 1 µM [1, 9]: 96.9%
- activity at 1 µM [1, 10]: 102%
- viability at 1 µM [1, 11]: 95.5%
- viability at 10 µM [1, 7]: 104%
- activity at 10 µM [1, 8]: 103%
- activity at 10 µM [1, 9]: 82.8%
- activity at 10 µM [1, 10]: 99.1%
- viability at 10 µM [1, 11]: 104%
- viability at 100 µM [1, 7]: 71.2%
- activity at 100 µM [1, 8]: 66.7%
- activity at 100 µM [1, 9]: 92.6%
- activity at 100 µM [1, 10]: 104%
- viability at 100 µM [1, 11]: 71.4%
- minimal effective concentration ([1]; read-out: endo.cyto.24hr POD): 41.2 µM
- minimal effective concentration ([1]; read-out: endo.mito.24hr POD): 41.2 µM
- minimal effective concentration ([1]; read-out: endo.mitoint.24hr POD): 100 µM
- minimal effective concentration ([1]; read-out: endo.nma.24hr POD): 100 µM
- minimal effective concentration ([1]; read-out: endo.tc.24hrs POD): 50.3 µM
